Entries after “also recorded” stand apart in the source; their conditions may differ.
Assays:
[1] = system: DENN; test: Western blot of endogenous DENN in stressed neuroblastoma cultures; type: cell-based, mouse; details: for DENN expression in cultures treated with oxidative stress factors: data not shown
Protocol: (§1) A) NSC19 and N2A cells were exposed to 0.1% BSA (Control) or 20 μM fibrillar Aβ(1-40) for 48 h. Cell extracts (100 μg) were immunoblotted with DENN antibody and reprobed with actin antibody. DENN reactive bands appear at ˜200 kD and ˜140 kD. DENN protein expression is higher in NSC19 relative to N2A cells. Aβ exposure dramatically reduces DENN protein expression. Similar results were obtained in three independent experiments. B) Total RNA from Control and Aβ exposed N2A cultures was extracted and RT-PCR using either DENN or actin specific primers was performed. […] Results are representative of three independent experiments. C) Primary rat hippocampal neurons were exposed to 25 μM Aβ(1-42) for 24 h, fixed in 4% PFA and stained with antibodies specific for DENN, phospho-JNK (P-JNK) and counterstained with Hoechst 33342 for nuclei.
NSC 19 cells were harvested after the appropriate treatments by scraping into cold PBS and centrifuging at 1500 ×g for 5 min at 4° C. Cells were then lysed in buffer A (20 mM Tris-Cl, pH 7.5, 1% Triton X-100, 0.5% NP-40, 0.1 M NaCl, 20 mM β-glycerophosphate, 2 mM EDTA, 2 mM sodium pyrophosphate, 10% glycerol, 10 μg/ml leupeptin and 2 mM phenylmethylsulfonyl fluoride) for 20 min on ice followed by four 5-second sonication bursts on ice. Lysates were centrifuged at 14,000 ×g for 10 min at 4° C. Protein concentrations were measured by the Bradford (1976) assay using bovine serum albumin (BSA) standards. Approximately 50 μg of cell lysates were mixed with 2Xsample buffer and boiled for 5 min. Samples were resolved by 10% SDS-polyacrylamide gel electrophoresis (PAGE), transferred to nitrocellulose membranes, blocked in 5% skim milk and 1% BSA in 1XTBS, and incubated overnight at 4° C. with primary antibody at indicated dilutions. Blots were then washed with TBS buffer containing 0.15% Tween 20 (washing buffer), incubated with a 1:1000 dilution of anti-mouse or anti-rabbit IgG-conjugated horseradish peroxidase for 1 h at room temperature, washed again and processed by ECL detection (Amersham). […]

[2] = system: DENN; test: RT-PCR of DENN RNA in Aβ-exposed N2A cultures; type: cell-based, murine; details: N2A cells
Protocol: as §1
Total RNA was purified using the RNeasy miniprep kit (Qiagen) and resuspended in 50 μt RNase free water. For each RT-PCR, 1 μg RNA was subjected to One-Step RT-PCR using Omniscript and Sensiscript Reverse transcriptases, HotStarTaq DNA polymerase and 0.5 μM of DENN primers: sense, SEQ ID NO: 6: 5′-[…]-3′ and antisense, SEQ ID NO: 1: 5′-[…]-3′, for 30 cycles with the following conditions: 94° C., 30 s; 60° C., 1 min; 72° C., 1 min. Human and murine actin prim were supplied by Clontech.
RNA expression was compared in N2A cells (FIG. 6B).

[3] = system: NSC19 cells; test: Annexin V FACS apoptosis assay, NSC19 cells overexpressing DENN or DENN mutants, Aβ(1-40) with or without SB203580; type: cell-based, mouse; details: 10 μM SB203580 with Aβ(1-40)
Excerpt: In contrast to primary CNS cultures, NSC19 are more readily transfectable and highly responsive to apoptosis (Smirnova et al., 1998; Citron et al, 1997). Cells were maintained in high glucose Dulbecco's Modified Eagle's Medium (DMEM) (GIBCO-BRL/Life Technologies, Rockville, Md.) supplemented with 10% fetal bovine serum (FBS) and 1% streptomycin/penicillin. Neuro2A cells (CCL-131), C0S7 (CRL-1651) and human embryonic kidney 293 (CRL-1573) cells were acquired from ATCC. Murine neuroblastoma Neuro2A (N2A) were grown in MEM supplemented with 10% FBS, while COS7 and 293 were maintained in DMEM supplemented with 10% FBS. Cells were plated (5 ×10^5 cells/ml) in 35-mm dishes and transfected with 1 μg total DNA using Effectene or SuperFect (Qiagen) as described by the manufacturer. […]
Cells were analyzed by fluorescence-activated cell sorting (FACS) analysis on a FACSTAR PLUS (Becton-Dickinson) and analyzed with Cell Quest software. […]
(PI) for cell death or GFP and phycoerythrin (PE)-conjugated annexin V for early apoptosis. The percentage of cell death was quantified as those cells expressing GFP and either annexin V or 7-AAD staining relative to total GFP expressing cells. Experiments were performed in triplicate with 10,000 events counted. […]

[4] = system: JNK; details: at 10 μM; cited from earlier work
[5] = system: NSC19 cells; test: FACS cell death assay (GFP and PI positive cells) after Aβ(1-40) exposure; type: cell-based, mouse; details: GFP-expressing NSC19 cultures, Aβ for 48 h
Protocol: Lyophilized, HPLC purified β-amyloid, Aβ25-35, Aβ1-40 , Aβ1-42 and Aβ40-1 were obtained from either Sigma Chemical Co., U.S. Peptide (Fullerton, Calif.) or Bachem (Torrance, Calif.), respectively. Peptides were reconstituted in double-distilled H2O at 10 mM Aβ. To age the β-amyloid in vitro and produce aggregated, fibrillar Aβ, an aliquot of the Aβ stock solution was dissolved at the indicated concentration in culture medium and incubated at 37° C. for 3 to 5 days. Cells were incubated with the appropriate Aβ peptide concentration for the indicated times and examined for immunofluorescence or cell death assay.
Cells were analyzed by fluorescence-activated cell sorting (FACS) analysis on a FACSTAR PLUS (Becton-Dickinson) and analyzed with Cell Quest software. FACS analysis for two color analysis used GFP and either 7-amino-actinomycin (7-AAD) or propidium iodide
(§2) (PI) for cell death or GFP and phycoerythrin (PE)-conjugated annexin V for early apoptosis. The percentage of cell death was quantified as those cells expressing GFP and either annexin V or 7-AAD staining relative to total GFP expressing cells. Experiments were performed in triplicate with 10,000 events counted. TUNEL staining was performed according to manufacturer's instructions (Roche).
Neurotoxicity induced by Aβ(1-40) exposure was further examined using clonal cells expressing GFP-fused mutant forms of DENN. […]

[6] = system: neuronal PC12 cells and sympathetic neurons; details: cited from earlier work
[7] = system: JNK3; details: cited from earlier work
[8] = system: JNK; test: JNK immunoprecipitation in vitro kinase assay (GST-c-Jun substrate) from Aβ-exposed N2A clones; type: cell-based, murine; details: 1 μM CEP11004 with 25 μM Aβ(1-42), 24 h; N2A clones expressing GFP or DENN
Protocol: For kinase assays, cells were exposed to 25 μM Aβ(1-40) in the absence or presence of 1 μM CEP11004 for the specified duration. Cell extracts were prepared, incubated with 5 μl JNK antibody for 4 h at 4° C. and precipitated with 60 μl 50% slurry protein A/G sepharose overnight at 4° C. Immunoprecipitates were washed, then incubated with 1 μg GST-cJun (1-79) and 50 μM ATP in 40 μl for 30 min at 30° C. Reactions were terminated with 40 μl Laemmli buffer, boiled for 4 min, centrifuged and 40 μl was loaded onto 10% SDS-PAGE, transferred to nitrocellulose and probed with phospho-c-Jun (Ser73) antibody.
N2A clones expressing GFP or DENN were exposed to 25 μM Aβ(1-42) either in the absence or presence of 1 μM CEP11004. Previously, inhibitiori of Aβ-induced cell death in neuronal PC12 cells and sympathetic neurons required less than 300 nM CEP1347 (Troy et al., 2001). After 24 h Aβ exposure, JNK was immunoprecipitated from cell extracts and incubated with GST-c-Jun substrate and ATP in an in vitro kinase assay. The reactions were immunoblotted with antibody specific to phosphorylated c-Jun. […] Thus, reduction of cell death and JNK activity by JNK inhibitors in DENN overexpressing cell cultures supports DENN involvement in c-Jun activation and cellular apoptosis.

[9] = system: mouse primary hippocampal neurons; test: TUNEL cell death assay in primary hippocampal neurons; type: cell-based; details: for Aβ-induced cell death (TUNEL positive cells): CEP11004 with 25 μM Aβ(1-42), 24 h, Control-AS or DENN-AS treated hippocampal cultures
Protocol: Primary mouse and rat hippocampal neurons were prepared from newborn C57B1/6 mouse or Sprague-Dawley rat pups. Briefly, hippocampi were dissected out, minced and digested with 100 U papain and 0.2 μg/ml DNaseI. Following digestion, cells were 'triturated with fire-polished Pasteur pipets and centrifuged in media containing 20 μg/ml BSA. Cells were plated on collagen-coated or poly-lysine coated plates at a density of 3×10^6 cells/ml in Neurobasal medium with B27 supplement and antibiotics (Life Technologies, Gaithersburg, Md.). One day after plating, cells were exposed to 5 μM cytosine arabinoside for 4 d to kill dividing cells. Experiments were performed after 6-8 days in vitro (DIV).
as §2
To assess cell death in neuronal cultures exposed to anti-sense oligonucleotides and Aβ, TUNEL staining was performed (FIG. 9B). […] However, due to the increased TUNEL staining with DENN-AS treated cultures, the overall cell death with Aβ was 10-15% greater in these cultures (FIG. 9C). DENN-AS treatment alone increased cell death by 20%. […] Furthermore, the level of cell death observed with Aβ was abrogated by exposing neuronal cultures to 1 βM CEP11004.

In the case of “Aβ: β-amyloid peptide; per FIG. 6 legend 20 μM fibrillar Aβ(1-40)”, the “reduction of endogenous DENN protein” value ([1]; NSC19 and N2A cells, 20 μM fibrillar Aβ(1-40), 48 h) is reported as “approximately 3 fold” and the “reduction in DENN RNA expression (RT-PCR)” value [2] is reported as “four-fold”.
For OO [hydrogen peroxide], the “DENN expression in cultures treated with oxidative stress factors” value [1] was “reduction in DENN expression”.
For C[S+]([O-])c1ccc(-c2nc(-c3ccc(F)cc3)c(-c3ccncc3)[nH]2)cc1 (centres unmarked) [SB203580, 4-(4-fluorophenyl)-2-(4-methylsulfinylphenyl)-5-(4-pyridyl)-1H-imidazole], the “cell death/apoptosis in DENN-JBD transfected cells with Aβ/SB203580 co-treatment” value ([3]; NSC19 DENN-JBD transfectants, p<0.05) is listed as “reproducible increase in cell death; also recorded: slight increase in apoptosis”, the “apoptotic response (GFP and annexin V positive cells) to Aβ in cells overexpressing DENN or DENN-CT” value ([3]; NSC19 cells overexpressing DENN or DENN-CT, p<0.01) is listed as “significantly attenuated apoptotic response; also recorded: decreased” and the JNK activity inhibition [4] is listed as “JNK activity is also inhibited”.
In the case of “Aβ(1-40): β-amyloid peptide 1-40, aged in vitro to aggregated, fibrillar form”, the “increase in cell death after Aβ exposure” value [5] is reported as “five-fold”.
In the case of CCSCc1ccc2c(c1)c1c3c(c4c5cc(CSCC)ccc5n5c4c1n2[C@H]1C[C@](O)(C(=O)OC)[C@]5(C)O1)CNC3=O [CEP1347], the “concentration required for inhibition of Aβ-induced cell death” value [6] is listed as “less than 300 nM” and the JNK3 activation [7] is listed as “inhibit JNK3 activation”.
In the case of N[C@@H](CCC(=O)O)C(=O)O [glutamate], the “DENN expression in cultures treated with oxidative stress factors” value [1] is reported as “reduction in DENN expression”.
With CCSCc1ccc2c(c1)c1c3c(c4c5cc(CSCC)ccc5n5c4c1n2C1C[C@](O)(C(=O)OC)[C@]5(C)O1)CNC3=O [CEP11004] the “JNK activity (c-Jun phosphorylation)” value [8] was “four-fold; also recorded: inhibits Aβ-induced c-Jun phosphorylation”, the “effect on DENN AS-induced cell death” value ([9]; CEP11004, DENN-AS treated hippocampal cultures) was “little effect” and the “Aβ-induced cell death (TUNEL positive cells)” value [9] was “abrogated”. For the same compound, the “Aβ-induced cell death (TUNEL positive cells)” value ([9]; listed as CEP1004) was “inhibits effect of Aβ-induced cell death”.
